Reference: ChEMBL document CHEMBL1201862, “PubChem BioAssay data set” (2004)
The source made the active and inactive calls.

Experiments:
[1] = HGIII-sPLA2 enzyme inhibition potency – biochemical, QFRET, IC50, dose response (AID 743457);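 further: green fluorescence rise as the enzyme cleaves BODIPY PC-A2 in liposomes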
[2] = biological target: T1, Short transient receptor potential channel 4 (Mus musculus, UniProt Q9QUQ5); assay: calcium entry via TRPC4 opening agents – cell-based, HEK293 TRPC4/mu-opioid, Fluo-4 calcium, dose response (AID 434937); assay type: functional
T1 sequence (Q9QUQ5 whole entry): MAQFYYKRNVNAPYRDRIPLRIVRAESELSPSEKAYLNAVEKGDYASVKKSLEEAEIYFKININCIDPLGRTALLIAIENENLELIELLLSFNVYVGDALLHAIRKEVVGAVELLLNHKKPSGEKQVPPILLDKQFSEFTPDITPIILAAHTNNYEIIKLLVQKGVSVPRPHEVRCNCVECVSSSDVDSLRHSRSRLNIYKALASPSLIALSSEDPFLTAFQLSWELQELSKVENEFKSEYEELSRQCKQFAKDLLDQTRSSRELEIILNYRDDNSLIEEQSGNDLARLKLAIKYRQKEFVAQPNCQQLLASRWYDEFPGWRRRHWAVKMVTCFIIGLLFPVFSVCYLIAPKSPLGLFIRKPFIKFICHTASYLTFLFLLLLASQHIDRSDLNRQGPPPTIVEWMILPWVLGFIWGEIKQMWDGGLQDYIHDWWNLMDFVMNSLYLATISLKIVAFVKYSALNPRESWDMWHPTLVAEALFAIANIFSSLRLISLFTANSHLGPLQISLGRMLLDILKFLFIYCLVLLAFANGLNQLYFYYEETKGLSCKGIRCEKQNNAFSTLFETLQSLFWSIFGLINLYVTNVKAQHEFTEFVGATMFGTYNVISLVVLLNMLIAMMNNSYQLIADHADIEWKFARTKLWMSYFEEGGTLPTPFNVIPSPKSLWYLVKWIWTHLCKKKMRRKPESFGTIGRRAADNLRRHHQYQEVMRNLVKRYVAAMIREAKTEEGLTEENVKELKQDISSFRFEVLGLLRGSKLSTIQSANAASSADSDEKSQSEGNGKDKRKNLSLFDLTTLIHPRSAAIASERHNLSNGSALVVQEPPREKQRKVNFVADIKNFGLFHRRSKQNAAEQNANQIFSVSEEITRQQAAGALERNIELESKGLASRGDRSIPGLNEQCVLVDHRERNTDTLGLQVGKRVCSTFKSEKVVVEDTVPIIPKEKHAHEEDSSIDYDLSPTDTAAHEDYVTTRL

[3] = Late stage assay provider results from the probe development effort to identify inhibitors of the Plasmodium falciparum M18 Aspartyl Aminopeptidase (M18AAP): radiolabel-based cell-based dose response assay to identify compounds that inhibit P. falciparum growth in RBCs, Set 2..; assay type: functional
[4] = HepG2 cell viability loss – cherry-picked samples, cytotoxicity control, dose response (AID 1053183); assay type: functional, cell-based
[5] = HEK293 cell viability loss – cherry-picked samples, cytotoxicity control, dose response (AID 1053185); assay type: functional, cell-based
[6] = A549 cell viability loss – cherry-picked samples, cytotoxicity control, dose response (AID 1053184); assay type: functional, cell-based
[7] = biological target: Potassium channel subfamily K member 3 (Homo sapiens, UniProt O14649); assay: inhibition of human KCNK3 channel flux – CHO cells, FluxOR thallium flux, SAR follow-up (AID 652212); assay type: functional
[8] = biological target: Voltage-gated inwardly rectifying potassium channel KCNH2 (Homo sapiens, UniProt Q12809); assay: off-target hERG block by TASK1 inhibitor candidates – FluxOR thallium flux, concentration-response, CHO cells, selectivity assay for TASK1 inhibitor project, SAR follow-up (AID 652194); assay type: functional, cell-based
[9] = biological target: Potassium channel subfamily K member 9 (Homo sapiens, UniProt Q9NPC2); assay: KCNK9 flux blockade, concentration-response – cell-based, FluxOR thallium flux, selectivity assay for TASK1 inhibitor project, SAR follow-up (AID 652211); assay type: functional;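 further: potency is for inhibitors of the channel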
[10] = loss of viability in embryonic kidney cells – cell-based, HEK293T, ATP luminescence, dry powder, cytotoxicity control, dose response (AID 652119); assay type: functional; conditions: HEK293
[11] = biological target: Protein disulfide-isomerase (Homo sapiens, UniProt P07237); assay: inhibition of PDI-mediated insulin reduction – biochemical, turbidity, dry powder samples, set 2, confirmation (AID 652146)
HEK293 = assay: viability loss in HEK293T cells – cell-based, ATP luminescence, cherry-pick samples, cytotoxicity control, dose response (AID 687005); assay type: functional; conditions: Homo sapiens;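 further: cells exposed to compound for 48 hours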
[12] = HEK293 Cytotoxicity Assay Measured in Cell-Based System Using Plate Reader - 7071-01_Inhibitor_Dose_CherryPick_Activity_Set2.; assay type: functional
HeLa = assay: viability loss in HeLa cells – cell-based, ATP luminescence, cherry-pick samples, cytotoxicity control, dose response (AID 687004); assay type: functional; conditions: Homo sapiens
Cryptococcus neoformans = assay: PubChem AID 686997; assay type: functional, organism-based
[13] = human cervical cancer cell viability loss – 24 h, plate reader, dry powder, cytotoxicity control, dose response (AID 686928); assay type: functional, cell-based; conditions: HeLa
Protein Wnt-3a = Protein Wnt-3a (Mus musculus, UniProt P27467); assay: antagonism of Wnt3a pathway luciferase reporter – Wnt-LIGHT cells, luminescence, selectivity assay for Gli-SUFU antagonist project, dose response (AID 651570); assay type: functional; conditions: read-out: IC50_Mean;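 further: Wnt-LIGHT reporter cells stimulated with conditioned medium from Wnt3a-producing cells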
[14] = biological target: COUP transcription factor 2 (Homo sapiens, UniProt P24468); assay: Luminescence-based cell-based high throughput dose response assay to identify inhibitors of COUP-TFII (NR2F2).; assay type: functional;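 further: HEK293 cells transiently cotransfected with COUP-TFII expression vector and reporter; luciferase reporter luminescence driven by COUP-TFII from the pX2-168 reporter plasmid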
[15] = biological target: T2, High affinity choline transporter 1 (Homo sapiens, UniProt Q9GZV3); assay: inhibition of SLC5A7-mediated choline transport – cell-based, HEK-293 hCHT, [3H]-choline uptake, dose response (AID 652177); assay type: functional
T2 sequence (Q9GZV3 whole entry): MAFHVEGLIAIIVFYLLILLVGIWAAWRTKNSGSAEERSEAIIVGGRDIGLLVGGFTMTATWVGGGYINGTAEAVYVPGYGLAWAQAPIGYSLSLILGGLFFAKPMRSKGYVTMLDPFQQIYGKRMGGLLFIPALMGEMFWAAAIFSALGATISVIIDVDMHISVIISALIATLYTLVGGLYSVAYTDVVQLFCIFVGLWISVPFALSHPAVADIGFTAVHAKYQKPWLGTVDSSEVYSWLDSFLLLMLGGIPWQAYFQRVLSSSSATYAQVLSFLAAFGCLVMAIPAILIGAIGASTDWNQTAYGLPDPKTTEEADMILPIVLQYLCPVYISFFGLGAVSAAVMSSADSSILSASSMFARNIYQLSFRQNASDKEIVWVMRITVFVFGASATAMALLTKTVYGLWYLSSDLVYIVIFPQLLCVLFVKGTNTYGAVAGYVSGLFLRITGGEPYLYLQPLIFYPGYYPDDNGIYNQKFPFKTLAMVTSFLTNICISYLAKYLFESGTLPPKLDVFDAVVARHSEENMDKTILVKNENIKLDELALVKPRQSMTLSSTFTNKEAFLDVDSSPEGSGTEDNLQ

H4 = assay: Luminescence Cell-Based Dose Response HTS to Identify Activators of 5'UTR Stem-Loop Driven Prion Protein mRNA Translation in H4 Neuroglioblastoma Cells. [Related pubchem assays: 1829 (Project Summary), 1814 (Primary HTS)]; assay type: functional; conditions: Homo sapiens
[16] = biological target: FAD-linked sulfhydryl oxidase ALR (Homo sapiens, UniProt P55789); assay: ALR-catalysed DTT oxidation blockers – biochemical, H2O2 detection, luminescence, cherry-pick, dose response (AID 493248)
[17] = Luminescence Cell-Based Dose Response to Identify Activators of Luciferase Translation or Activity in H4-C Neuroglioblastoma Cells. [Related pubchem assays: 1829 (Project Summary), 1814 (Primary HTS)]; assay type: functional
[18] = Luminescence Cell-Based Dose Response HTS to Identify Activators of Luciferase Translation or Activity in H4 […] Cells. [Related pubchem assays: 1829 (Project Summary), 1814 (Primary HTS)]; assay type: functional
[19] = Luminescence Cell-Based Dose Confirmation to Identify Activators of 5'UTR Stem-Loop Driven Alpha-Synuclein mRNA Translation in H4 Neuroglioblastoma Cells. [Related pubchem assays: 1829 (Project Summary), 1814 (Primary HTS)]; assay type: functional
[20] = Luminescence Cell-Based Dose Response to Identify Activators of 5'UTR Stem-Loop Driven Prion Protein mRNA Translation in H4-C Neuroglioblastoma Cells. [Related pubchem assays: 1829 (Project Summary), 1814 (Primary HTS)]; assay type: functional
[21] = biological target: T3, Oxysterols receptor LXR-beta (Homo sapiens, UniProt P55055); assay type: functional, cell-based;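 further: agonist activity at LXR measured by a cell-based luminescence readout across a dose range, run as a counterscreen for daf-12 agonists; HEK293 cells with Gal4-LXR fusion and GAL4-driven luciferase reporter; potency for activation of Gal4-LXR reporter so compounds are agonists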
T3 sequence (P55055 whole entry): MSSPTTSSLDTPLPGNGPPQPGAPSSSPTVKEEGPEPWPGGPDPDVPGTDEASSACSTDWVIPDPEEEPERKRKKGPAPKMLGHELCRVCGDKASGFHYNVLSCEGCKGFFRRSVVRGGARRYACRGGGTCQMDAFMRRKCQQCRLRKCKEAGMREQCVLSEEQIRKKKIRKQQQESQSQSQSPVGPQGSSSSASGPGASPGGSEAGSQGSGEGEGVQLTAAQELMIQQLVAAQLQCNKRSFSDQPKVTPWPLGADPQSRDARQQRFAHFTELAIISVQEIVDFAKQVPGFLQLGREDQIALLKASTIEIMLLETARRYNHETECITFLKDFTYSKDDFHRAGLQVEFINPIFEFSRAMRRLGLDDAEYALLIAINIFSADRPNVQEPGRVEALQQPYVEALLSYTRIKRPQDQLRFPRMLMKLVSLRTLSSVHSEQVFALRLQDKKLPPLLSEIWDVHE

[22] = biological target: Disintegrin and metalloproteinase domain-containing protein 17 (Homo sapiens, UniProt P78536); assay: inhibition of ADAM17 substrate cleavage – biochemical, quenched FRET substrate, counter-screen for ADAM10 exosite inhibitor project, dose response (AID 743253)
[23] = test system: Streptococcus sp. 'group A'; assay: Streptococcus pyogenes SK(-)GAS viability under kanamycin – luminescence, BacTiterGlo, confirmation, counter-screen for streptokinase expression inhibitor project, dose response (AID 1900); assay type: functional, organism-based
[24] = NIH-3T3 fibroblast cytotoxicity, dose response, cytotoxicity control, cell-based, fluorescence, Alamar Blue, secondary assay (AID 2327); assay type: functional;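 further: NIH-3T3 mouse fibroblasts cultured with fluconazole at 8 µg/mL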
Streptococcus = assay: GAS UMAA2166 growth inhibition – luminescence, BacTiterGlo, counter-screen for streptokinase expression inhibitor project, dose response (AID 1915); assay type: functional, organism-based;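 further: potency for reduction of bacterial viability or growth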
[25] = potency of ADAM10 substrate cleavage blockers – biochemical, QFRET, dose response (AID 743254);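 further: ADAM10 enzyme with the DM2 quenched FRET peptide as substrate; EDANS fluorescence gain as the protease cuts the substrate; inhibitor potency against ADAM10 proteolytic activity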
[26] = fluconazole-exposed Candida albicans growth modulators – fluorescence, retest, confirmation (AID 2467); assay type: functional, cell-based
Estrogen receptor beta = Estrogen receptor beta (Homo sapiens, UniProt Q92731);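 further: recombinant ER-beta bound to coactivator SRC1 peptide in presence of estradiol agonist; inhibitors block coactivator peptide binding and lower the FRET signal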
Kallikrein-7 = Kallikrein-7 (Homo sapiens, UniProt P49862); assay: Fluorescence Intensity-based biochemical primary high throughput dose response assay to identify activators of kallikrein-7 (K7) zymogen.
[27] = A Cell-Based Confirmatory Screen for Compounds that Inhibit VEEV, TC-83 (8).; assay type: functional

Chain of FAD-linked sulfhydryl oxidase ALR (P55789 whole entry): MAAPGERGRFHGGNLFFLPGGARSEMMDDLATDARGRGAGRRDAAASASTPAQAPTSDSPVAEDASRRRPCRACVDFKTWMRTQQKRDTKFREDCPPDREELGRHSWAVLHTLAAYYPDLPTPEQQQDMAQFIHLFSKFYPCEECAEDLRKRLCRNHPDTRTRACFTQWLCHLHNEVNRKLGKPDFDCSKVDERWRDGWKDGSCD
Chain of COUP transcription factor 2 (P24468 whole entry): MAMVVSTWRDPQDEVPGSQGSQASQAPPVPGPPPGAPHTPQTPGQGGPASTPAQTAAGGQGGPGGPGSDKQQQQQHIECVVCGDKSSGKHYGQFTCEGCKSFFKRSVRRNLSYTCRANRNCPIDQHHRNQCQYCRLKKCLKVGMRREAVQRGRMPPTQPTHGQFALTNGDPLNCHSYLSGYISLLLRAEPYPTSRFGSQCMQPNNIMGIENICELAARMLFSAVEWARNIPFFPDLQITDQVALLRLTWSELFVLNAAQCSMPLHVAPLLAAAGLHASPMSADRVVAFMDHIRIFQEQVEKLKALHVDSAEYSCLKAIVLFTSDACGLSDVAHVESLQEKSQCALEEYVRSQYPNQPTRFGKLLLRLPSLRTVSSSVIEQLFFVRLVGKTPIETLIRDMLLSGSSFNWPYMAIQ
Chain of Estrogen receptor beta (Q92731 whole entry): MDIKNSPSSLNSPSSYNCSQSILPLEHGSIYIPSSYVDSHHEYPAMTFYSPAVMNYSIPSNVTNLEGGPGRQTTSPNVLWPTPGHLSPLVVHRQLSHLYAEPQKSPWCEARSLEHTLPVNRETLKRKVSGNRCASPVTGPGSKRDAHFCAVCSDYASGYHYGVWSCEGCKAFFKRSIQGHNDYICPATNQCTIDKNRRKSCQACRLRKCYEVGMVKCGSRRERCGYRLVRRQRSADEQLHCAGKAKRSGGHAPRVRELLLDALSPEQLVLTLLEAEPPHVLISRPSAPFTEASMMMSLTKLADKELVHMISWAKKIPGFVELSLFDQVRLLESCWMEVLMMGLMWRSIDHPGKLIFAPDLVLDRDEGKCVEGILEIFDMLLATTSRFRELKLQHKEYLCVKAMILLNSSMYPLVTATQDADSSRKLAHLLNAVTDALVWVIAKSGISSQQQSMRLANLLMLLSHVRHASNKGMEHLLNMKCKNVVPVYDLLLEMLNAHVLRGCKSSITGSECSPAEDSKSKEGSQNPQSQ
Chain of Protein disulfide-isomerase (P07237 whole entry): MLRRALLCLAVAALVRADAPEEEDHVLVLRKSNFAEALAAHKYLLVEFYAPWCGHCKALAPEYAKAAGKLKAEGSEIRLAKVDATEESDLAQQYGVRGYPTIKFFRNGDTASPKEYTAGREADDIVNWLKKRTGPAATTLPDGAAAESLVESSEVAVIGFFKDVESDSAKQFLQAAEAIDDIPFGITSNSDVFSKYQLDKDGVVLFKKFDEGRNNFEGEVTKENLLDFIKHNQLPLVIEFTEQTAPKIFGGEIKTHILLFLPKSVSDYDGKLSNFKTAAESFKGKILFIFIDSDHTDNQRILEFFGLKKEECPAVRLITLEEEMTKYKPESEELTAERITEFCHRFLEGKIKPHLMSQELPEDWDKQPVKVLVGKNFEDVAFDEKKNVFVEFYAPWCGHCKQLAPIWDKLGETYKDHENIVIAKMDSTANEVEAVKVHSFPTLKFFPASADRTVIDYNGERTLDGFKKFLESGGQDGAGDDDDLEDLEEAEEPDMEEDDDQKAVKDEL
Chain of Kallikrein-7 (P49862 whole entry): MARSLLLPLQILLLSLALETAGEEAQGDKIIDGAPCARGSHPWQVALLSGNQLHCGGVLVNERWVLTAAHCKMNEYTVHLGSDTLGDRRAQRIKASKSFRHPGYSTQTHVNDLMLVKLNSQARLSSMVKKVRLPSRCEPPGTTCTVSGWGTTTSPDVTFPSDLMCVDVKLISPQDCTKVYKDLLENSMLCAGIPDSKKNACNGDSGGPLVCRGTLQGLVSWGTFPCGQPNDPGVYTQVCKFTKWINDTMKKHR
Chain of Protein Wnt-3a (P27467 whole entry): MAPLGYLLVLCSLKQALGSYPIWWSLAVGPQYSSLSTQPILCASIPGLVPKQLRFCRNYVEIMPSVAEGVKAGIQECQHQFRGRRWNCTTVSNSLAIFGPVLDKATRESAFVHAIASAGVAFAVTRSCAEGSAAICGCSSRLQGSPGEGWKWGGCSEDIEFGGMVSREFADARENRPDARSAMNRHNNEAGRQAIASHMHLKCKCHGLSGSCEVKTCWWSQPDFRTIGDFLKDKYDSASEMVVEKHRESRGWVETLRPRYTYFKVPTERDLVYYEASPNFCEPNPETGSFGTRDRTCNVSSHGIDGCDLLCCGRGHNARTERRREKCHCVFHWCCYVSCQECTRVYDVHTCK
Chain of Potassium channel subfamily K member 9 (Q9NPC2 whole entry): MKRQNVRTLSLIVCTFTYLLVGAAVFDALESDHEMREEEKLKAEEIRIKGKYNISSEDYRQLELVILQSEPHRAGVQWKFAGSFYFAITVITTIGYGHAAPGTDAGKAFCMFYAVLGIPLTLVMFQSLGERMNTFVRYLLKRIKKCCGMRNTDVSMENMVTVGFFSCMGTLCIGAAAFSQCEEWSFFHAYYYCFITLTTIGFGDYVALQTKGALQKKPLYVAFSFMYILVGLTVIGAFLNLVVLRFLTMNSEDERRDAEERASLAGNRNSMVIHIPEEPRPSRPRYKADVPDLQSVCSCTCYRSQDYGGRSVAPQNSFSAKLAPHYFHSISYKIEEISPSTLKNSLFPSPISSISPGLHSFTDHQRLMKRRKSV
Chain of Potassium channel subfamily K member 3 (O14649 whole entry): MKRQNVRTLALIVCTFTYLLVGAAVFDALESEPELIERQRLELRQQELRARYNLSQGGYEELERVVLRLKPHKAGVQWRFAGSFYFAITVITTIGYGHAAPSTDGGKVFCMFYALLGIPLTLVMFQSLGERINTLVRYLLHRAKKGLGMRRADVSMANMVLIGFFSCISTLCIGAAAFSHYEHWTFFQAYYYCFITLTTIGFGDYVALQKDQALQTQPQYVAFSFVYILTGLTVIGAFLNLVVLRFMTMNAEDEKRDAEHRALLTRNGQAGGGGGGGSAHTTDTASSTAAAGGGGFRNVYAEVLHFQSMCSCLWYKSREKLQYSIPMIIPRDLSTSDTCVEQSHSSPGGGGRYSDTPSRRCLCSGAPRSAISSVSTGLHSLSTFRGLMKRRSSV
Chain of Voltage-gated inwardly rectifying potassium channel KCNH2 (Q12809 whole entry): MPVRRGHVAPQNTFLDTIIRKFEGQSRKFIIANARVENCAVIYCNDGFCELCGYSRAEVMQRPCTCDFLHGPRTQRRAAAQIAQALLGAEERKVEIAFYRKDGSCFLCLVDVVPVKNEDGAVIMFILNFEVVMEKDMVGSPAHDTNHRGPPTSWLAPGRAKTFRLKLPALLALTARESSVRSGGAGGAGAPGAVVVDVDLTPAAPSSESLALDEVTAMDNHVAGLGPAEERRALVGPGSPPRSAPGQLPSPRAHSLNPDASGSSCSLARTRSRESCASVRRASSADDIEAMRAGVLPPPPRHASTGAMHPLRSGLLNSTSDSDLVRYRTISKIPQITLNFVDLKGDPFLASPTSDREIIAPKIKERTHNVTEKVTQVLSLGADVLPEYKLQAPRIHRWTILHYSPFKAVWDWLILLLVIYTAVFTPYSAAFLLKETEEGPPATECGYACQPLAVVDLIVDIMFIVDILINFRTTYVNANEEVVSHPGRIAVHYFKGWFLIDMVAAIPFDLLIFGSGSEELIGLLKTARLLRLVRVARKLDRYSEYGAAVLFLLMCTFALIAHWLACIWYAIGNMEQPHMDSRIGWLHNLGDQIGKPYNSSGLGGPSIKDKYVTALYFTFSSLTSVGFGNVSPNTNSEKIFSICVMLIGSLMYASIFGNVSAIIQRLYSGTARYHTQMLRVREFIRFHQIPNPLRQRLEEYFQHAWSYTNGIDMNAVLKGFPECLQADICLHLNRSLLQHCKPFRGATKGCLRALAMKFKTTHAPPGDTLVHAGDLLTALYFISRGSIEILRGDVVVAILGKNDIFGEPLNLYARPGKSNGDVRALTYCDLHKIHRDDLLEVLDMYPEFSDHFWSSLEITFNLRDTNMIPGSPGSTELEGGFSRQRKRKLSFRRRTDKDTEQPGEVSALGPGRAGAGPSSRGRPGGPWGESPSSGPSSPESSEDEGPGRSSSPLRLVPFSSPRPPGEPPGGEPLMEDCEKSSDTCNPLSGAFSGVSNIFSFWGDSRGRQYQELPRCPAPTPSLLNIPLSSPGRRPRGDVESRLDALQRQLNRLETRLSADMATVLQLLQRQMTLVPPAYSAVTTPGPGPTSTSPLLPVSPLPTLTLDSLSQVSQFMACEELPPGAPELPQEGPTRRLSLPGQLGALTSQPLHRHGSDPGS

Cc1ccc(C(=O)NC(=S)NNC(=O)c2ccccc2)cc1
IC50 [1]: 51.6 µM (inactive)
EC50 [2]: 1.33 µM (active)

CN(CCc1ccc(O)c(O)c1)c1ccnc2ccccc12
IC50 [3]: 4.8 µM (active)

Fc1cccc(CN2C[C@@H]3N[C@H](C2)[C@H]3c2ccc(/C=C/c3ccccc3)cc2)c1
AC50 [4]: 18.8 µM (active)
AC50 [5]: 13.2 µM (active)
AC50 [6]: 13.7 µM (active)

CCCC(=O)C1CCN(c2ncnc3c2CN(C(=O)c2ccc(-c4ccccc4)cc2)CC3)CC1
IC50 [7]: 0.021 µM (active)
IC50 [8]: 7.68 µM (active)
IC50 [9]: 0.14 µM (active)

CCN(C)C(=O)C1(CCOc2ccccc2)CCN(Cc2ccc(O)c(Cl)c2)CC1
AC50 [10]: > 52 µM (inactive)
AC50 [11]: 3 µM (active)

COC(=O)C1=C(C)N(Cc2ccc(Br)cc2)C(=S)NC1c1ccc(OC)cc1 (configuration not stated)
AC50 (HEK293): 22.2 µM (active)
AC50 [12]: 22.2 µM (active)
AC50 (HeLa): > 47 µM (inactive)
AC50 (Cryptococcus neoformans): > 60 µM (inactive)
AC50 (Cryptococcus neoformans; Cryptococcus neoformans): 36.4 µM (active)

O=C(Nc1nnc(-c2ccc3c(c2)OCCO3)o1)C1CCCCCC1
AC50 [13]: > 200 µM (inactive)

CCC(C)NC(=O)CCC(=O)OC1O[C@H]2OC3(C)CC[C@H]4[C@H](C)CCC(C1C)C24OO3 (some centres not stated)
IC50 (Protein Wnt-3a): 0.238 µM (active)
IC50 [14]: 468 µM (inactive)

CCc1cc(CNC(=O)c2ccc(OC)c(OCCN3CCCCC3)c2)on1
IC50 [15]: 5.91 µM (active)

Cc1nc(N)sc1N=Nc1ccc(Br)cc1
EC50 (H4): > 120 µM (not active)
AC50 [16]: 0.753 µM (active)
EC50 [17]: 0.303 µM (active)
EC50 [18]: < 0.1 µM (active)
EC50 [19]: 0.28 µM (active)
EC50 [20]: 0.285 µM (active)
EC50 [21]: > 67.5 µM (inactive)

Cc1cc(NC(=O)c2c(F)cccc2Cl)n(-c2nc3ccccc3[nH]2)n1
IC50 [22]: > 69.5 µM (inactive)
EC50 [23]: 6.4 µM (active)
EC50 [24]: > 160 µM (inconclusive)
EC50 (Streptococcus): 7.12 µM (active)
IC50 [25]: > 7.72 µM (active)
EC50 [26]: > 38 µM (not active)
IC50 (Estrogen receptor beta): > 50 µM (not active)

CNc1ccc(-c2cccc(CO)c2)cn1
EC50 (Kallikrein-7): > 7.72 µM (active)

O=c1nc(Nc2cccc(OCc3ccccc3)c2)sc2ncccc12
IC50 [27]: 1.64 µM (active)

COc1ccc(C2C3=C(CC(C)(C)CC3=O)N(C)C3=C2C(=O)CC(C)(C)C3)cc1
AC50 (cells): 2.07 µM (active)
